This is an account of results in PMC5666896, “Molecular Docking and Screening Studies of New Natural Sortase A Inhibitors” (International Journal of Molecular Sciences, 2017).

Values after ≈ are worked out from the molar mass of the structure shown. “Also recorded” adds a separate entry of the source.

Series [1] addresses T1, SrtA (Staphylococcus aureus, UniProt Q2FV99).
T1 construct: purchased Anaspec, San Jose, CA, USA
Description: Sortase A activity assay (FRET, SensoLyte 520 kit). The series is classed as biochemical, S. aureus. As for the experimental part: The inhibitory activity of all of the compounds was determined by quantifying the increase in fluorescence intensity upon a cleavage 5-FAM/QXL® FRET substrate using a SensoLyte® 520 Sortase A Activity Assay Kit (Anaspec, San Jose, CA, USA). According to kit protocol, reactions were performed in a 96-well plate, with each well containing 10 μL test compound solution, 40 μL enzyme solution, and 50 μL sortase substrate solution. All compounds were dissolved in dimethyl sulfoxide (DMSO) and diluted with sterilized distilled water. The final concentration of DMSO was 1%. Each compound diluted in buffer to the tested concentration and was checked for intrinsic fluorescence. According to the kit protocol, we used the enzyme without the test compound as a control, a 1% DMSO control, and a substrate control. We used the kit inhibitor, 4-hydroxymercuribenzoic acid (HMB), as the positive control. Reactions were carried out for 1 h at room temperature and analyzed fluorometrically (SpectraMAX Gemini XS, CA, USA) at Ex/Em = 490 nm/520 nm. All reported values are the means of triplicate assays.

Series [2] relates to tested bacteria strains. Description: Preliminary antibacterial screening by well diffusion test. Type of series: cell-based. The note with it: eight strains. As for the experimental part:
(§1) Eight food-related microorganisms were used to evaluate the antimicrobial properties, including the Gram-positive Staphylococcus aureus ATCC 6538, Staphylococcus aureus ATCC 25923, Staphylococcus epidermidis ATCC 12228, Enterococcus faecalis ATCC 29212, Bacillus cereus ATCC 11778, and the Gram-negative Escherichia coli ATCC 8739, Escherichia coli ATCC 35218, and Proteus mirabilis ATCC 29245. The antibacterial assays were performed by the well diffusion and broth microdilution method (ISO 20776-1) in order to determine MIC.
(§2) Test microorganisms were stored in freezing conditions and activated by cultivation in Nutrient broth at 37 °C for 24 h. Overnight cultures were used to obtain the inoculum by transferring an amount of cells from the broth to a test tube containing 5 mL of demineralized water until a turbidity of 1–2 × 10^8 colony-forming unit (CFU)/mL was achieved, equivalent to 0.5 McFarland standard. Dilutions of the inoculum were cultured on nutrient agar supplemented with 5% sheep blood to verify the absence of contamination and the validity of the inoculum.
Compounds were investigated by the agar well diffusion method. The plates containing Mueller Hinton agar medium were spread with 0.1 mL of the bacterial inoculum. […] Microbial inhibition was visually appreciated as the diameter of the inhibition zones surrounding the well and recorded in mm. […]

Series [3] relates to S. epidermidis ATCC 12228. Nature of the series: Broth microdilution MIC. The series is classed as cell-based. The note with it: Staphylococcus epidermidis, ATCC12228; 37 °C, 24 h. As for the experimental part:
(§3) Eight food-related microorganisms were used to evaluate the antimicrobial properties, including the Gram-positive Staphylococcus aureus ATCC 6538, Staphylococcus aureus ATCC 25923, Staphylococcus epidermidis ATCC 12228, Enterococcus faecalis ATCC 29212, Bacillus cereus ATCC 11778, and the Gram-negative Escherichia coli ATCC 8739, Escherichia coli ATCC 35218, and Proteus mirabilis ATCC 29245. The antibacterial assays were performed by the well diffusion and broth microdilution method (ISO 20776-1) in order to determine MIC. Test microorganisms were stored in freezing conditions and activated by cultivation in Nutrient broth at 37 °C for 24 h. […] Dilutions of the inoculum were cultured on nutrient agar supplemented with 5% sheep blood to verify the absence of contamination and the validity of the inoculum. Bacterial strains susceptible to compounds in the well diffusion assay were studied for their MIC values using 96-well microtiter plates. The experiments were conducted using the reference method for testing the in vitro activity of the antimicrobial agents where MIC is the lowest concentration of an antimicrobial agent that, under defined in vitro conditions, prevents the appearance of visible growth of the microorganism after its incubation overnight. A total of 250 μL of the bacterial suspension in sterile demineralized water was added to 11 mL Mueller-Hinton broth (MBH) to a concentration of 5 × 10^7 cells/mL. Compounds to be investigated were dissolved in MBH containing bacterial inoculum (5 × 10^4 CFU/well) to achieve the two-fold serial concentrations ranging between […] [30]. The microplates were covered with an adhesive seal and incubated at 37 °C for 24 h. DMSO combined with MHB was used as the negative control for each bacterial strain. The plates were visually read under normal laboratory lighting using a manual mirror viewer. Two replicates were conducted for each compound and each bacterial strain.

In series [4] the test system is B. cereus ATCC 11778. Description: Broth microdilution MIC. The series is classed as cell-based. The note with it: Bacillus cereus, ATCC11778; 37 °C, 24 h. As for the experimental part:
as §3

Series [5] relates to S. aureus ATCC 25923. Nature of the series: Broth microdilution MIC. The series is classed as cell-based. The note with it: Staphylococcus aureus, ATCC25923; 37 °C, 24 h. As for the experimental part:
as §3

A short description of series [6]: in vivo. The note with it: in vivo. As for the experimental part: (§4) The Daphnia magna test was performed in 4 mL 12-tissue culture wells, using 10 daphnids/well, with each sample being tested in duplicate. […] All experiments were conducted in the dark, in a plant growth chamber (Sanyo MLR-351 H, San Diego, CA, USA) at 25 ± 1 °C [32, 33].
(§5) Statistical analysis of the inhibitory effect on SrtA and the Daphnia magna bioassay was performed using GraphPad Prism version 5.01 software (GraphPad Software, Inc., La Jolla, CA, USA). A student’s t-test (p < 0.05) was applied in order to analyze the results obtained from replicates. […] The inhibition (I %) and lethality percentage (L %) values were calculated and plotted against the logarithm of concentrations and the corresponding curves were calculated using the least squares fit method. […] Whenever the obtained results permitted, the upper and lower limits of the 95% confidence interval (95% CI) and the correlation coefficient (r^2) were calculated.

Series [7] relates to S. epidermidis ATCC 12228. Nature of the series: Well diffusion test. Type of series: cell-based. The note with it: Staphylococcus epidermidis, ATCC12228; well 6 mm; gentamicin 10 μg, emodin 13.5 μg, rhein 14.2 μg; 37 °C, 24 h; read-out: Diameters of inhibition zone (mm), including diameter of well. As for the experimental part:
as §1, §2
(§6) Compounds were investigated by the agar well diffusion method. The plates containing Mueller Hinton agar medium were spread with 0.1 mL of the bacterial inoculum. The wells (6 mm diameter) were filled with 50 μL of the sample. The plates were incubated at 37 °C for 24 h. DMSO was used as a negative control and one standard antibiotic (gentamicin, 10 μg) as a positive control. Microbial inhibition was visually appreciated as the diameter of the inhibition zones surrounding the well and recorded in mm. All tests were run in triplicate for each combination of extract and microbial strain [26].

In series [8] the test system is E. coli ATCC 8739. Nature of the series: Well diffusion test. The series is classed as cell-based. The note with it: Escherichia coli, ATCC8739; well 6 mm; gentamicin 10 μg, emodin 13.5 μg, rhein 14.2 μg; 37 °C, 24 h; read-out: Diameters of inhibition zone (mm), including diameter of well. As for the experimental part:
as §1, §2, §6

Series [9] deals with B. cereus ATCC 11778. Nature of the series: Well diffusion test. The note with it: Bacillus cereus, ATCC11778; well 6 mm; gentamicin 10 μg, emodin 13.5 μg, rhein 14.2 μg; 37 °C, 24 h; read-out: Diameters of inhibition zone (mm), including diameter of well. The series is classed as cell-based. As for the experimental part: as §1, §2, §6
Series [10] deals with E. faecalis ATCC 29212. Nature of the series: Well diffusion test. Type of series: cell-based. The note with it: Enterococcus faecalis, ATCC29212; well 6 mm; gentamicin 10 μg, emodin 13.5 μg, rhein 14.2 μg; 37 °C, 24 h; read-out: Diameters of inhibition zone (mm), including diameter of well. As for the experimental part: as §1, §2, §6
Series [11] concerns E. coli ATCC 35218. Nature of the series: Well diffusion test. The note with it: Escherichia coli, ATCC35218; well 6 mm; gentamicin 10 μg, emodin 13.5 μg, rhein 14.2 μg; 37 °C, 24 h; read-out: Diameters of inhibition zone (mm), including diameter of well. The series is classed as cell-based. As for the experimental part:
as §1, §2, §6

Series [12] relates to P. mirabilis ATCC 29245. Nature of the series: Well diffusion test. The series is classed as cell-based. The note with it: Proteus mirabilis, ATCC29245; well 6 mm; gentamicin 10 μg, emodin 13.5 μg, rhein 14.2 μg; 37 °C, 24 h; read-out: Diameters of inhibition zone (mm), including diameter of well. As for the experimental part: as §1, §2, §6
Series [13] deals with S. aureus ATCC 6538. Description: Well diffusion test. Type of series: cell-based. The note with it: Staphylococcus aureus, ATCC6538; well 6 mm; gentamicin 10 μg, emodin 13.5 μg, rhein 14.2 μg; 37 °C, 24 h; read-out: Diameters of inhibition zone (mm), including diameter of well. As for the experimental part: as §1, §2, §6
Series [14] relates to S. aureus ATCC 25923. Description: Well diffusion test. The note with it: Staphylococcus aureus, ATCC25923; well 6 mm; gentamicin 10 μg, emodin 13.5 μg, rhein 14.2 μg; 37 °C, 24 h; read-out: Diameters of inhibition zone (mm), including diameter of well. Type of series: cell-based. As for the experimental part: as §1, §2, §6
Series [15] deals with T1, SrtA. The note with it: cited from earlier work.
The test system of series [16] is Daphnia magna. Description: in vivo. The note with it: after 48 h; tested 0.5 to 100 μM. As for the experimental part:
as §4, §5

Series [17] is described as follows: Solubility in water (observation during FRET testing).

T1 sequence (Q2FV99 whole entry): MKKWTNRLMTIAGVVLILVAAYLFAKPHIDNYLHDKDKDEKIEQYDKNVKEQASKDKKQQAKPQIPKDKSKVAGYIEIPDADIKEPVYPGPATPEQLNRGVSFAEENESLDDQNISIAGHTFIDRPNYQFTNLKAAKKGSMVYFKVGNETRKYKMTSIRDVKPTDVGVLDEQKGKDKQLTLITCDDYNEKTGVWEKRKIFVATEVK

Consider `Cc1cc(O)c2c(c1)C(=O)c1cc(O)cc(O)c1C2=O` [Emodin], for which the “SrtA inhibition (result in words)” value in [1] was “statistically significant SrtA inhibition”. The compound further gave an inhibition at 100 µM in [1] of 10.1%. The “Antimicrobial effect (result in words)” value in [2] is listed as “observable antimicrobial effect”. The figures for the minimal inhibitory concentration (MIC) in [3], in series [4] and in series [5] were 8 µg/mL (≈ 29.6 µM), 16 µg/mL (≈ 59.2 µM) and 8 µg/mL (≈ 29.6 µM), respectively. Besides, in [6], the LC50 at 24 h stood at 34.7 µM. This compound came in with an LC50 at 48 h in [6] of 24.2 µM. Further, the zone of inhibition at 13.5 µg/disc stood at 14 mm in series [7]; 6 mm in [8]; 12 mm in series [9]; 6 mm in series [10]; 6 mm in series [11]; 6 mm in [12]. For the same compound, the zone of inhibition at 13.5 µg/disc in series [13] came to 6 mm; in series [14] it was 20 mm.
As for `CNC(C)C1CCC(N)C(OC2C(N)CC(N)C(OC3OCC(C)(O)C(NC)C3O)C2O)O1` (centres unmarked) [Gentamicin, reference compound], the MIC in series [3] was found to be 2 µg/mL (≈ 4.19 µM); in [4] it was 4 µg/mL (≈ 8.38 µM); in series [5], 2 µg/mL (≈ 4.19 µM). For the same compound, the zone of inhibition at 10 µg/disc amounted to 29 mm in series [7]; 21 mm in series [8]; 24 mm in [9]; 12 mm in [10]; 20 mm in series [11]; 20 mm in series [12]. Besides, the zone of inhibition at 10 µg/disc was 17 mm in series [13] and 21 mm in [14].
Turning to `O=c1c(O)c(-c2ccc(O)c(O)c2)oc2cc(O)cc(O)c12` [Quercetin], in series [1], the “SrtA inhibition (result in words)” value is recorded as “statistically significant SrtA inhibition” and 10 µM produced 8.55% inhibition. For the same compound, the “Inhibition of SrtA enzymatic activity (result in words)” value in series [15] is “proven to inhibit SrtA enzymatic activity”. Moreover, the Maximum lethality in series [16] was at most 30%. Also, the “Solubility in water (result in words)” value in series [17] is “low solubility in water; also recorded: very low solubility in water”.
As for `O=C(O)c1cc(O)c2c(c1)C(=O)c1cccc(O)c1C2=O` [Rhein], the “SrtA inhibition (result in words)” value in series [1] is “statistically significant SrtA inhibition”. Also, in series [1], the inhibition at 10 µM was determined as 7.01%. For the same compound, the “Antimicrobial effect (result in words)” value in [2] is “observable antimicrobial effect”. Further, the figures for the MIC in series [3], in series [4] and in series [5] were 16 µg/mL (≈ 56.3 µM), 32 µg/mL (≈ 113 µM) and 64 µg/mL (≈ 225 µM), respectively. In addition, the zone of inhibition at 14.2 µg/disc in [7] was 30 mm; in series [8], 6 mm; in [9], 15 mm; in series [10], 6 mm; in series [11] it was 6 mm; in series [12], 6 mm. Also, the zone of inhibition at 14.2 µg/disc in series [13] amounted to 6 mm; in [14], 12 mm. For the same compound, in series [17], the “Solubility in water (result in words)” value was “low solubility in water”.
